Data published in patent US20230058961A1, “SUBSTITUTED HETEROCYCLICS WITH THERAPEUTIC ACTIVITY IN HIV” (New York Blood Center, Inc., priority 2019, published 2023).

Key:
[1] = in vitro; settings: human
Description: The anti-HIV-1 activity was assessed in a single-cycle assay by infecting TZM-bl indicator cells with the pseudovirus HIV-1 HXB2 according to established procedures (F. Curreli, Y. D. Kwon, D. S. Belov, R. R. Ramesh, A. V. Kurkin, A. Altieri, P. D. Kwong, A. K. Debnath, J Med Chem 2017, 60, 3124-3153; which is incorporated herein by reference for all that it teaches about the conduct and interpretation of the assay).
The cytotoxicity of the small polycyclic molecules in TZM-bl cells was determined by using the colorimetric method CellTiter 96® AQueous One Solution Cell Proliferation Assay (MTS) (Promega) following the manufacturer's instructions. Briefly, TZM-bl cells were platted in a 96-well tissue culture plate at 1×10^4/well and cultured at 37° C. Following overnight incubation, the cells were incubated with 100 μl of the compounds at graded concentrations and cultured for 3 days. The MTS reagent was added to the cells and incubated for 4 h at 37° C. The absorbance was recorded at 490 nm.

[2] = system: pseudovirus HIV-1 HXB2; assay: microbe, parasite or virus in culture; assay type: cell-based
[3] = Human immunodeficiency virus 1, HXB2, TZM-bl, anti-HIV-1 activity, single-cycle assay, TZM-bl cells, pseudovirus HIV-1 HXB2, read-out: IC50
[4] = anti-HIV-1 activity, single-cycle assay, TZM-bl cells, pseudovirus HIV-1 HXB2, read-out: IC50
[5] = CC50, cytotoxicity, TZM-bl cells, MTS, 3 days

## Cc1cc(-c2ccc(C(F)(F)F)cn2)[nH]c1C(=O)NC(C)(CN)c1nc(CO)cs1 (racemic) [Compound 31, N-(1-Amino-2-(4-(hydroxymethyl)thiazol-2-yl)propan-2-yl)-3-methyl-5-(5-(trifluoromethyl)-pyridin-2-yl)-1H-pyrrole-2-carboxamide]
[1]; CC50
  CC50 at 3 days: > 68.3 µM
[2]; [3]
  IC50: 2.6 ± 0.4 µM

## CC(CN)(NC(=O)c1ccc(-c2ccc(C(F)(F)F)cn2)[nH]1)c1nc(CO)cs1 (racemic) [Compound 32, N-(1-Amino-2-(4-(hydroxymethyl)thiazol-2-yl)propan-2-yl)-5-(5-(trifluoromethyl)pyridin-2-yl)-1H-pyrrole-2-carboxamide]
[1]; CC50
  CC50 at 3 days: > 70.5 µM
[2]; [3]
  IC50: 5.1 ± 0.4 µM

## NCC(NC(=O)c1ccc(-c2ccc(C(F)(F)F)c(F)c2)[nH]1)c1ncc(CO)s1 (stereo not shown) [Comparator A, reference compound]
[1]; CC50
  CC50 at 3 days: 21.9 µM
[2]; TZM-bl
  IC50: 0.089 µM

## NCC(NC(=O)c1ccc(-c2ccc(C(F)(F)F)cc2)[nH]1)c1ncc(CO)s1 (stereo not shown) [Comparator B, reference compound]
[1]; CC50
  CC50 at 3 days: 34 µM

## NCC(NC(=O)c1ccc(-c2ccc(Cl)cn2)[nH]1)c1ncc(CO)s1 (stereo not shown) [Compound 2, N-(2-Amino-1-(5-(hydroxymethyl)thiazol-2-yl)ethyl)-5-(5-chloropyridin-2-yl)-1H-pyrrole-2-carboxamide]
[1]; CC50
  CC50 at 3 days: 142 ± 1.7 µM
[2]; [4]
  IC50: 2.7 ± 0.7 µM

## Cc1cc(-c2ccc(Cl)cn2)[nH]c1C(=O)NC(CN)c1ncc(CO)s1 (stereo not shown) [Compound 3, N-(2-Amino-1-(5-(hydroxymethyl)thiazol-2-yl)ethyl)-5-(5-chloropyridin-2-yl)-3-methyl-1H-pyrrole-2-carboxamide]
[1]; CC50
  CC50 at 3 days: 98.3 ± 4 µM
[2]; [3]
  IC50: 1.2 ± 0.1 µM

## NCC(NC(=O)c1ccc(-c2ccc(C(F)(F)F)cn2)[nH]1)c1ncc(CO)s1 (stereo not shown) [Compound 5, N-(2-Amino-1-(5-(hydroxymethyl)thiazol-2-yl)ethyl)-5-(5-(trifluoromethyl)pyridin-2-yl)-1H-pyrrole-2-carboxamide]
[1]; CC50
  CC50 at 3 days: > 122 µM
[2]; [3]
  IC50: < 1 µM
[2]; [4]
  IC50: 0.96 µM

## Cc1cc(-c2ccc(C(F)(F)F)cn2)[nH]c1C(=O)NC(CN)c1ncc(CO)s1 (stereo not shown) [Compound 7, N-(2-amino-1-(5-(hydroxymethyl)thiazol-2-yl)ethyl)-3-methyl-5-(5-(trifluoromethyl)pyridin-2-yl)-1H-pyrrole-2-carboxamide]
[1]; CC50
  CC50 at 3 days: 92.8 ± 2.4 µM
[2]; [3]
  IC50: < 1 µM

## Cc1cc(-c2ccc(C(F)(F)F)cn2)[nH]c1C(=O)NC(c1ncc(CO)s1)C(C)(C)N (stereo not shown) [Compound 11, N-(2-Amino-1-(5-(hydroxymethyl)thiazol-2-yl)-2-methylpropyl)-3-methyl-5-(5-(trifluoro-methyl)pyridin-2-yl)-1H-pyrrole-2-carboxamide]
[1]; CC50
  CC50 at 3 days: 35.3 ± 2 µM
[1]; [5]
  CC50 at 3 days: < 50 µM
[2]; [4]
  IC50: 0.6 ± 0.2 µM

## NCC(NC(=O)c1ccc(-c2ccc(C(F)(F)F)cn2)[nH]1)c1ncc(C(O)CO)s1 (stereo not shown) [Compound 13, N-(2-Amino-1-(5-(1,2-dihydroxyethyl)thiazol-2-yl)ethyl)-5-(5-(trifluoromethyl)pyridin-2-yl)-1H-pyrrole-2-carboxamide]
[1]; CC50
  CC50 at 3 days: > 113 µM
[1]; [5]
  CC50 at 3 days: > 100 µM
[2]; [4]
  IC50: 2.1 ± 0.3 µM

## NCC(NC(=O)c1ccc(-c2ccc(Cl)cn2)[nH]1)c1nc(CO)cs1 (stereo not shown) [Compound 15, N-(2-Amino-1-(4-(hydroxymethyl)thiazol-2-yl)ethyl)-5-(5-chloropyridin-2-yl)-1H-pyrrole-2-carboxamide]
[1]; CC50
  CC50 at 3 days: > 132 µM
[1]; [5]
  CC50 at 3 days: > 100 µM
[2]; [4]
  IC50: 5 ± 0.5 µM

## NCC(NC(=O)c1ccc(-c2ccc(F)cn2)[nH]1)c1nc(CO)cs1 (stereo not shown) [Compound 17, N-(2-Amino-1-(4-(hydroxymethyl)thiazol-2-yl)ethyl)-5-(5-fluoropyridin-2-yl)-1H-pyrrole-2-carboxamide]
[1]; CC50
  CC50 at 3 days: > 138 µM
[1]; [5]
  CC50 at 3 days: > 100 µM
[2]; [3]
  IC50: > 10 µM
[2]; [4]
  IC50: > 11 µM

## Cc1ccc(-c2ccc(C(=O)NC(CN)c3nc(CO)cs3)[nH]2)nc1 (stereo not shown) [Compound 19, N-(2-Amino-1-(4-(hydroxymethyl)thiazol-2-yl)ethyl)-5-(5-methylpyridin-2-yl)-1H-pyrrole-2-carboxamide]
[1]; CC50
  CC50 at 3 days: > 140 µM
[1]; [5]
  CC50 at 3 days: > 100 µM
[2]; [4]
  IC50: 9.6 ± 1.2 µM

## NCC(NC(=O)c1ccc(-c2ccc(C(F)(F)F)cn2)[nH]1)c1nc(CO)cs1 (stereo not shown) [Compound 21, N-(2-Amino-1-(4-(hydroxymethyl)thiazol-2-yl)ethyl)-5-(5-(trifluoromethyl)pyridin-2-yl)-1H-pyrrole-2-carboxamide]
[1]; CC50
  CC50 at 3 days: 96 ± 6 µM
[2]; [4]
  IC50: 0.5 µM

## CC(C)(N)C(NC(=O)c1ccc(-c2ccc(C(F)(F)F)cn2)[nH]1)c1nc(CO)cs1 (stereo not shown) [Compound 23, N-(2-Amino-1-(4-(hydroxymethyl)thiazol-2-yl)-2-methylpropyl)-5-(5-(trifluoromethyl)pyridin-2-yl)-1H-pyrrole-2-carboxamide]
[1]; CC50
  CC50 at 3 days: 61 ± 6.5 µM
[1]; [5]
  CC50 at 3 days: < 50 µM
[2]; [4]
  IC50: 1.73 µM

## NCC(NC(=O)c1ccc(-c2ccc(C(F)(F)F)cn2)[nH]1)c1nc(CCO)cs1 (stereo not shown) [Compound 25, N-(2-Amino-1-(4-(2-hydroxyethyl)thiazol-2-yl)ethyl)-5-(5-(trifluoromethyl)pyridin-2-yl)-1H-pyrrole-2-carboxamide]
[1]; CC50
  CC50 at 3 days: 100 ± 7 µM
[2]; [4]
  IC50: 1.7 µM

## NCC(NC(=O)c1ccc(-c2ccc(C(F)(F)F)cn2)[nH]1)c1nc(C(O)CO)cs1 (stereo not shown) [Compound 29, N-(2-Amino-1-(4-(1,2-dihydroxyethyl)thiazol-2-yl)ethyl)-5-(5-(trifluoromethyl)pyridin-2-yl)-1H-pyrrole-2-carboxamide]
[1]; CC50
  CC50 at 3 days: > 113 µM
[1]; [5]
  CC50 at 3 days: > 100 µM
[2]; [3]
  IC50: 5.2 ± 0.9 µM

## NCC(NC(=O)c1ccc(-c2ccc(C(F)(F)F)cn2)[nH]1)c1nc(CO)c(CO)s1 (stereo not shown) [Compound 35, N-(2-Amino-1-(4,5-bis(hydroxymethyl)thiazol-2-yl)ethyl)-5-(5-(trifluoromethyl)pyridin-2-yl)-1H-pyrrole-2-carboxamide]
[1]; CC50
  CC50 at 3 days: > 113 µM
[2]; [4]
  IC50: 1.8 µM

## NCC(NC(=O)c1ccc(-c2ccc(C(F)(F)F)cn2)[nH]1)c1nccs1 (stereo not shown) [Compound 37, N-(2-Amino-1-(thiazol-2-yl)ethyl)-5-(5-(trifluoromethyl)pyridin-2-yl)-1H-pyrrole-2-carboxamide]
[1]; CC50
  CC50 at 3 days: 89.3 ± 1 µM
[2]; [3]
  IC50: 2 ± 0.2 µM

## NCC(NC(=O)c1ccc(-c2ccc(Cl)nc2)[nH]1)c1nc(CO)cs1 (stereo not shown) [Compound 39, N-(2-Amino-1-(4-(hydroxymethyl)thiazol-2-yl)ethyl)-5-(6-chloropyridin-3-yl)-1H-pyrrole-2-carboxamide]
[1]; CC50
  CC50 at 3 days: > 132 µM
[1]; [5]
  CC50 at 3 days: > 100 µM
[2]; [3]
  IC50: > 10 µM
[2]; [4]
  IC50: > 11 µM

## NCC(NC(=O)c1ccc(-c2ccc(C(F)(F)F)nc2)[nH]1)c1nc(CO)cs1 (stereo not shown) [Compound 41, N-(2-Amino-1-(4-(hydroxymethyl)thiazol-2-yl)ethyl)-5-(6-(trifluoromethyl)pyridin-3-yl)-1H-pyrrole-2-carboxamide]
[1]; CC50
  CC50 at 3 days: > 122 µM
[1]; [5]
  CC50 at 3 days: > 100 µM
[2]; [3]
  IC50: > 10 µM
[2]; [4]
  IC50: 12.7 ± 2.8 µM

## NCC(NC(=O)c1ccc(-c2ccc(Cl)cn2)[nH]1)c1csc(CO)n1 (stereo not shown) [Compound 67, N-(2-Amino-1-(2-(hydroxymethyl)thiazol-4-yl)ethyl)-5-(5-chloropyridin-2-yl)-1H-pyrrole-2-carboxamide]
[1]; CC50
  CC50 at 3 days: > 106 µM
